The record followed here is PubChem BioAssay (NCI).

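How tested: cells in 96-well plates exposed to compound for 48 hours at five concentrations. GI50: concentration for 50% inhibition of growth. TGI is the concentration that stops growth completely.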

Some test systems named below: A549 NSCLC; COLO 205 colon; HCT-116 colon; K-562 leukemia; MDA-MB-435; NCI-H522 lung; OVCAR-8 ovarian; SF-268 CNS.
What all share (assay): NCI tumour cell line growth inhibition, 48 h

Regarding `COc1cc2c(cc1F)C(c1ccccc1Cl)=Nc1c(n[nH]c1C)N2`, the GI50 in the assay on A549 NSCLC was 938 nM; with COLO 205 colon, 416 nM; in the assay on HCT-116 colon, 639 nM; with K-562 leukemia, 493 nM; in the assay on MDA-MB-435, 172 nM; with NCI-H522 lung, 415 nM. In addition, the GI50 is 6290 nM with OVCAR-8 ovarian and 1140 nM with SF-268 CNS. The TGI is 23900 nM in the assay on A549 NSCLC; 3790 nM in the assay on COLO 205 colon; 18400 nM in the assay on HCT-116 colon; above 50400 nM with K-562 leukemia; 19100 nM with MDA-MB-435; 20900 nM with NCI-H522 lung. Besides, the TGI came to 30400 nM in the assay with OVCAR-8 ovarian and 11700 nM with SF-268 CNS.

Turning to `CC1C=CC(OC(=O)C(C)(O)CCC(O)(C(=O)OC2CC(O)C(C(C)C)CC2(C)O)C(C)C)(C(C)C)CC1` (stereo unspecified), the GI50 with A549 NSCLC is 567 nM; in the assay on COLO 205 colon it was 747 nM; with HCT-116 colon it was 160 nM; in the assay with K-562 leukemia, 91.6 nM; in the assay with MDA-MB-435, 521 nM; in the assay with NCI-H522 lung, 576 nM. Besides, the GI50 in the assay with OVCAR-8 ovarian was 835 nM; with SF-268 CNS it was 645 nM. The TGI in the assay with A549 NSCLC is 1390 nM; with COLO 205 colon, 1610 nM; in the assay on HCT-116 colon, 449 nM; in the assay with K-562 leukemia, 218 nM; in the assay on MDA-MB-435, 1130 nM; in the assay with NCI-H522 lung, 1360 nM. Moreover, the values for the TGI with OVCAR-8 ovarian and with SF-268 CNS were 2690 nM and 1640 nM, respectively.

On to `CCc1c(C)nc2sc3c(N)ncnc3c2c1C`, for which the GI50 in the assay with A549 NSCLC, with COLO 205 colon, with HCT-116 colon, with K-562 leukemia, in the assay on MDA-MB-435 and in the assay on NCI-H522 lung was above 25000 nM throughout. Also, the GI50 in the assay on OVCAR-8 ovarian and in the assay on SF-268 CNS was above 25000 nM each time. Besides, the TGI in the assay with A549 NSCLC, with COLO 205 colon, in the assay with HCT-116 colon, in the assay with K-562 leukemia, in the assay on MDA-MB-435 and in the assay with NCI-H522 lung was above 25000 nM in each case. Besides, the TGI in the assay with OVCAR-8 ovarian and in the assay on SF-268 CNS was above 25000 nM in each case.

Take `COc1ccc(Nc2ccnc(N3CCN(c4ccnc5cc(Cl)ccc45)CC3)n2)cc1`: the GI50 was 1470 nM with A549 NSCLC; 1380 nM in the assay with COLO 205 colon; 485 nM with HCT-116 colon; 444 nM with K-562 leukemia; 227 nM with MDA-MB-435; 321 nM in the assay on NCI-H522 lung. Besides, the figures for the GI50 in the assay with OVCAR-8 ovarian and in the assay on SF-268 CNS were 1680 nM and 2310 nM, respectively. Besides, the TGI is above 100000 nM in the assay on A549 NSCLC; 3800 nM in the assay on COLO 205 colon; 3270 nM in the assay on HCT-116 colon; above 20800 nM in the assay with K-562 leukemia; 707 nM in the assay on MDA-MB-435; 1750 nM in the assay with NCI-H522 lung. The TGI in the assay with OVCAR-8 ovarian is above 21700 nM; in the assay on SF-268 CNS it was above 100000 nM.

Consider `C[C@@H]1Cc2cc(O)ccc2[C@H]2CC[C@]3(C)/C(=C/COCCN(C)C)CC[C@H]3[C@H]12` (tested in a mixture with another compound), for which the GI50 is 55.7 nM with A549 NSCLC; 363 nM in the assay on COLO 205 colon; 245 nM with HCT-116 colon; 256 nM in the assay on K-562 leukemia; 268 nM in the assay with MDA-MB-435; 131 nM in the assay with NCI-H522 lung. In addition, the values for the GI50 with OVCAR-8 ovarian and with SF-268 CNS were 180 nM and 111 nM, respectively. The TGI in the assay on A549 NSCLC was found to be 193 nM; in the assay with COLO 205 colon it was 1030 nM; in the assay on HCT-116 colon, 780 nM; in the assay on K-562 leukemia, 985 nM; with MDA-MB-435, 875 nM; in the assay with NCI-H522 lung it was 735 nM. Moreover, the TGI in the assay on OVCAR-8 ovarian worked out at 364 nM; in the assay with SF-268 CNS, 235 nM.

As for `CC(C)C[C@H](NC(=O)CCn1ccc2ccccc2c1=O)B(O)O`, the GI50 is 8410 nM in the assay with A549 NSCLC; 5060 nM in the assay with COLO 205 colon; 1550 nM in the assay with HCT-116 colon; 4970 nM in the assay on K-562 leukemia; 1270 nM in the assay with MDA-MB-435; 2600 nM in the assay with NCI-H522 lung. In addition, the GI50 was 15300 nM with OVCAR-8 ovarian and 5690 nM with SF-268 CNS. Moreover, the TGI was above 100000 nM in the assay on A549 NSCLC; above 100000 nM in the assay on COLO 205 colon; 19800 nM with HCT-116 colon; above 100000 nM in the assay on K-562 leukemia; 2810 nM in the assay on MDA-MB-435; 8090 nM in the assay on NCI-H522 lung. Moreover, the TGI in the assay on OVCAR-8 ovarian was above 100000 nM; in the assay on SF-268 CNS, 30400 nM.

Take `C=CCc1cc(Nc2c3ccc(Cl)cc3nc3ccc(OC)cc23)cc(CN(CC)CC)c1O`: the GI50 with A549 NSCLC is 3260 nM; in the assay with COLO 205 colon it was 1390 nM; in the assay with HCT-116 colon it was 365 nM; in the assay on K-562 leukemia, 615 nM; with MDA-MB-435, 2300 nM; with NCI-H522 lung it was 1770 nM. Besides, the GI50 with OVCAR-8 ovarian is 1440 nM; in the assay on SF-268 CNS, 2900 nM. In addition, the TGI was 13900 nM in the assay with A549 NSCLC; 3000 nM in the assay on COLO 205 colon; 1970 nM with HCT-116 colon; 4110 nM with K-562 leukemia; 11800 nM in the assay on MDA-MB-435; 5960 nM with NCI-H522 lung. The TGI in the assay with SF-268 CNS turned out to be 16000 nM.
